Literature values in patent US20040023994A1 (priority 2002, published 2004).

Experiments:
NCI-H23 = settings: NCI-H23, Non-Small Cell Lung, NCI database, cited from earlier work
LOX IMVI = settings: Melanoma, NCI database, cited from earlier work
MDA-N = settings: Breast, NCI database, cited from earlier work
SN12C = settings: Renal, NCI database, cited from earlier work
MOLT-4 = settings: MOLT-4, Leukemia, NCI database, cited from earlier work
MALME-3M = settings: Melanoma, NCI database, cited from earlier work
U251 = settings: U251, CNS, NCI database, cited from earlier work
SK-MEL-2 = settings: SK-MEL-2, Melanoma, NCI database, cited from earlier work
DU-145 = settings: DU-145, Prostate, NCI database, cited from earlier work
BT-549 = settings: BT-549, Breast, NCI database, cited from earlier work
M14 = settings: M14, Melanoma, NCI database, cited from earlier work
IGR-OV1 = settings: IGR-OV1, Ovarian, NCI database, cited from earlier work
OVCAR-5 = settings: OVCAR-5, Ovarian, NCI database, cited from earlier work
A549/ATCC = settings: Non-Small Cell Lung, NCI database, cited from earlier work
NCI-H460 = settings: NCI-H460, Non-Small Cell Lung, NCI database, cited from earlier work
UACC-257 = settings: UACC-257, Melanoma, NCI database, cited from earlier work
[1] = read-out: LC50 (the source's name)

Q: For `Sc1ncnc2nc[nH]c12` [6-MP, 6-mercaptopurine], which GI50 (NCI-H23) is on record?
A: 3.74 µM

Q: And the TGI (NCI-H23)?
A: >100 µM

Q: And the CC50 (NCI-H23; [1])?
A: > 100 µM

Q: What about the CC50 (LOX IMVI; [1]) of the same compound?
A: > 100 µM

Q: And the GI50 (LOX IMVI)?
A: 0.35 µM

Q: What about the TGI (LOX IMVI) of the same compound?
A: >100 µM

Q: And the CC50 (MDA-N; [1])?
A: > 100 µM

Q: And the GI50 (MDA-N)?
A: 1.5 µM

Q: And the TGI (MDA-N)?
A: >100 µM

Q: And the CC50 (SN12C; [1])?
A: > 100 µM

Q: And the GI50 (SN12C)?
A: 22.6 µM

Q: And the TGI (SN12C)?
A: >100 µM

Q: What about the GI50 (MOLT-4) of the same compound?
A: 1.51 µM

Q: And the TGI (MOLT-4)?
A: >100 µM

Q: What about the CC50 (MOLT-4; [1]) of the same compound?
A: > 100 µM

Q: And the CC50 (MALME-3M; [1])?
A: > 100 µM

Q: And the GI50 (MALME-3M)?
A: 4.28 µM

Q: What about the TGI (MALME-3M) of the same compound?
A: >100 µM

Q: And the GI50 (U251)?
A: 11.8 µM

Q: What about the TGI (U251) of the same compound?
A: >100 µM

Q: What about the CC50 (U251; [1]) of the same compound?
A: > 100 µM

Q: What about the GI50 (SK-MEL-2) of the same compound?
A: 5.81 µM

Q: What about the TGI (SK-MEL-2) of the same compound?
A: >100 µM

Q: What about the CC50 (SK-MEL-2; [1]) of the same compound?
A: > 100 µM

Q: And the GI50 (DU-145)?
A: 1.73 µM

Q: And the TGI (DU-145)?
A: >100 µM

Q: And the CC50 (DU-145; [1])?
A: > 100 µM

Q: And the GI50 (BT-549)?
A: > 100 µM

Q: And the TGI (BT-549)?
A: >100 µM

Q: And the CC50 (BT-549; [1])?
A: > 100 µM

Q: What about the GI50 (M14) of the same compound?
A: 0.67 µM

Q: What about the TGI (M14) of the same compound?
A: >100 µM

Q: What about the CC50 (M14; [1]) of the same compound?
A: > 100 µM

Q: What about the GI50 (IGR-OV1) of the same compound?
A: 8.59 µM

Q: And the TGI (IGR-OV1)?
A: >100 µM

Q: And the CC50 (IGR-OV1; [1])?
A: > 100 µM

Q: And the GI50 (OVCAR-5)?
A: 7.85 µM

Q: What about the TGI (OVCAR-5) of the same compound?
A: >100 µM

Q: What about the CC50 (OVCAR-5; [1]) of the same compound?
A: > 100 µM

Q: What about the CC50 (A549/ATCC; [1]) of the same compound?
A: > 100 µM

Q: What about the GI50 (A549/ATCC) of the same compound?
A: 27.7 µM

Q: And the TGI (A549/ATCC)?
A: >100 µM

Q: What about the GI50 (NCI-H460) of the same compound?
A: 5.6 µM

Q: And the TGI (NCI-H460)?
A: >100 µM

Q: And the CC50 (NCI-H460; [1])?
A: > 100 µM

Q: What about the GI50 (UACC-257) of the same compound?
A: 14.2 µM

Q: And the TGI (UACC-257)?
A: >100 µM

Q: And the CC50 (UACC-257; [1])?
A: > 100 µM
